Data on two compounds can be found in ChEMBL document CHEMBL1201862, “PubChem BioAssay data set” (2004).

Some test systems named below: CCRF-CEM; HCC 2998; UACC-62; MOLT-4; DLD-1; OVCAR-8; DMS-273; SF-268; NCI-H23; K562; HOP-92; SR; RPMI-8226; OVCAR-5; SNB-19; TK-10; HCT-15; SW-620; SNB-75; A498.
What all share (assay): DTP human tumour cell line panel, 48 h

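Protocol summary: plate cells (96-well), add compound at 5 concentrations, incubate 48 h, interpolate endpoints linearly. GI50 is the concentration that inhibits growth by half.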 Active and inactive are the calls of the source. Cut-off read from the data, not from the text of the source: active = GI50 up to about 1.1 µM and inactive = higher. Bounds are passed on as bounds.

Turning to `N#CCCN(CCC#N)c1ccc(/C=C2\N=C(c3cc([N+](=O)[O-])ccc3Cl)N(S(=O)(=O)c3ccccc3)C2=O)cc1`, the GI50 with CCRF-CEM, in the assay on HCC 2998, in the assay on UACC-62, with MOLT-4, in the assay on DLD-1 and with OVCAR-8 was > 100 µM (inactive) each time. The GI50 in the assay with DMS-273, in the assay with SF-268, in the assay with NCI-H23, in the assay with K562, in the assay with HOP-92 and in the assay on SR was > 100 µM (inactive) throughout. In addition, the GI50 is > 100 µM (inactive) with RPMI-8226; > 100 µM (inactive) with OVCAR-5; > 100 µM (inactive) in the assay with SNB-19; > 100 µM (inactive) in the assay with TK-10; over 100 µM with HCT-15; > 100 µM (inactive) with SW-620.

`CCC1CN2CCc3cc(OC)c(OC)cc3C2CC1CC1c2cc(OC)c(OC)cc2CCN1C(=O)C(N)Cc1ccccc1.[O-][Cl+3]([O-])([O-])O` (stereo not drawn): the GI50 with CCRF-CEM was 0.41 µM (active); in the assay on HCC 2998 it was 0.564 µM (active); in the assay on UACC-62, 3.11 µM (inactive); in the assay with MOLT-4 it was 0.239 µM (active); in the assay on DLD-1, 3.38 µM (inactive); in the assay on OVCAR-8, 1.97 µM (inactive). The GI50 with SNB-75 is 2.94 µM (inactive); in the assay with DMS-273 it was 1.98 µM (inactive); in the assay on SF-268 it was 3.37 µM (inactive); with NCI-H23, 2.42 µM (inactive); in the assay on K562, 0.238 µM (active); with HOP-92, 1.19 µM (inactive). For the same compound, the 50% growth inhibitory concentration (GI50) is 0.423 µM (active) in the assay on SR; 1.94 µM (inactive) in the assay on RPMI-8226; 3.24 µM (inactive) with A498; 3.08 µM (inactive) with OVCAR-5; 1.85 µM (inactive) in the assay with SNB-19; 2.75 µM (inactive) in the assay with TK-10. Further, the GI50 is 1.72 µM in the assay on HCT-15 and 0.49 µM (active) with SW-620.
